According to PubChem BioAssay AID2060885 (Molecular Pharmacology Branch, DTP, NCI, 2025):
pIC50: −log10 of the molar value.

Test system: NCI-H23 complex spheroids with HUVEC/MSC, viability
Experiment: Anticancer human tumor NCI-H23 cell line growth inhibition [RAS];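 note: spheroids exposed to compound for 7 days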;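 for viability, T/C: 100% = DMSO vehicle control viability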
Conditions: for pIC50: curve of first compound; for viability, T/C: stronger effect = lower value
Summary of the method: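 Agents were tested in combination matrices in half-log decrements from a top concentration at or near clinical Cmax (10 microM if undetermined). Targets were multi-cell spheroids of tumour lines plus HUVEC and MSC stromal cells.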

[1] = second compound 0.000949 µM, first compound 0.0316 µM
[2] = second compound 0.000949 µM, first compound 0.1 µM
[3] = second compound 0.000949 µM, first compound 0.316 µM
[4] = second compound 0.000949 µM, first compound 1 µM
[5] = second compound 0.003 µM, first compound 0.0316 µM
[6] = second compound 0.003 µM, first compound 0.1 µM
[7] = second compound 0.003 µM, first compound 0.316 µM
[8] = second compound 0.003 µM, first compound 1 µM
[9] = second compound 0.00949 µM, first compound 0.0316 µM
[10] = second compound 0.00949 µM, first compound 0.1 µM
[11] = second compound 0.00949 µM, first compound 0.316 µM
[12] = second compound 0.00949 µM, first compound 1 µM
[13] = second compound 0.03 µM, first compound 0.0316 µM
[14] = second compound 0.03 µM, first compound 0.1 µM
[15] = second compound 0.03 µM, first compound 0.316 µM
[16] = second compound 0.03 µM, first compound 1 µM
[17] = second compound 0.0949 µM, first compound 0.0316 µM
[18] = second compound 0.0949 µM, first compound 0.1 µM
[19] = second compound 0.0949 µM, first compound 0.316 µM
[20] = second compound 0.0949 µM, first compound 1 µM
[21] = second compound 0.3 µM, first compound 0.0316 µM
[22] = second compound 0.3 µM, first compound 0.1 µM
[23] = second compound 0.3 µM, first compound 0.316 µM
[24] = second compound 0.3 µM, first compound 1 µM
[25] = second compound 0.000949 µM, first compound 0.00316 µM
[26] = second compound 0.000949 µM, first compound 0.01 µM
[27] = second compound 0.003 µM, first compound 0.00316 µM
[28] = second compound 0.003 µM, first compound 0.01 µM
[29] = second compound 0.00949 µM, first compound 0.00316 µM
[30] = second compound 0.00949 µM, first compound 0.01 µM
[31] = second compound 0.03 µM, first compound 0.00316 µM
[32] = second compound 0.03 µM, first compound 0.01 µM
[33] = second compound 0.0949 µM, first compound 0.00316 µM
[34] = second compound 0.0949 µM, first compound 0.01 µM
[35] = second compound 0.3 µM, first compound 0.00316 µM
[36] = second compound 0.3 µM, first compound 0.01 µM

CCC(CC)c1cc(NC2CCC(N)C2)n2nccc2n1 (stereo unspecified) + CCn1c(-c2cccnc2C(C)OC)c2c3cc(ccc31)N1CCOC(CC(NC(=O)C(C(C)C)N(C)C(=O)C3(F)CCN(C(=O)C#CC(C)(C)N(C)C)CC3)C(=O)N3CCCC(N3)C(=O)OCC(C)(C)C2)C1
pIC50 (second compound 0.000949 µM): > 7.50 | pIC50 (second compound 0.003 µM): > 7.50 | pIC50 (second compound 0.00949 µM): > 7.50 | pIC50 (second compound 0.03 µM): > 7.50 | pIC50 (second compound 0.0949 µM): > 7.50 | pIC50 (second compound 0.3 µM): > 7.50 | viability, T/C [1]: 32.7% | viability, T/C [2]: 33.7% | viability, T/C [3]: 24.4% | viability, T/C [4]: 28% | viability, T/C (second compound 0.000949 µM, first compound 3.16 µM): 3.12% | viability, T/C (second compound 0.000949 µM, first compound 10 µM): 0.38% | viability, T/C [5]: 27.1% | viability, T/C [6]: 25.2% | viability, T/C [7]: 28.3% | viability, T/C [8]: 25.9% | viability, T/C (second compound 0.003 µM, first compound 3.16 µM): 1.84% | viability, T/C (second compound 0.003 µM, first compound 10 µM): 0.31% | viability, T/C [9]: 27.7% | viability, T/C [10]: 25.1% | viability, T/C [11]: 31.2% | viability, T/C [12]: 25.8% | viability, T/C (second compound 0.00949 µM, first compound 3.16 µM): 1.37% | viability, T/C (second compound 0.00949 µM, first compound 10 µM): 0.37% | viability, T/C [13]: 25.3% | viability, T/C [14]: 28.2% | viability, T/C [15]: 28% | viability, T/C [16]: 25.3% | viability, T/C (second compound 0.03 µM, first compound 3.16 µM): 0.57% | viability, T/C (second compound 0.03 µM, first compound 10 µM): 0.34% | viability, T/C [17]: 25.7% | viability, T/C [18]: 25.3% | viability, T/C [19]: 28.1% | viability, T/C [20]: 24.1% | viability, T/C (second compound 0.0949 µM, first compound 3.16 µM): 0.71% | viability, T/C (second compound 0.0949 µM, first compound 10 µM): 0.48% | viability, T/C [21]: 22.5% | viability, T/C [22]: 24.1% | viability, T/C [23]: 27.1% | viability, T/C [24]: 20.8% | viability, T/C (second compound 0.3 µM, first compound 3.16 µM): 0.58% | viability, T/C (second compound 0.3 µM, first compound 10 µM): 0.67%

CC(C)n1nc(-c2ccc3oc(N)nc3c2)c2c(N)ncnc21 + CCn1c(-c2cccnc2C(C)OC)c2c3cc(ccc31)N1CCOC(CC(NC(=O)C(C(C)C)N(C)C(=O)C3(F)CCN(C(=O)C#CC(C)(C)N(C)C)CC3)C(=O)N3CCCC(N3)C(=O)OCC(C)(C)C2)C1
pIC50 (second compound 0.000949 µM): > 9.50 | pIC50 (second compound 0.003 µM): > 9.50 | pIC50 (second compound 0.00949 µM): > 9.50 | pIC50 (second compound 0.03 µM): > 9.50 | pIC50 (second compound 0.0949 µM): > 9.50 | pIC50 (second compound 0.3 µM): > 9.50 | viability, T/C (second compound 0.000949 µM, first compound 0.000316 µM): 33.1% | viability, T/C (second compound 0.000949 µM, first compound 0.001 µM): 33.1% | viability, T/C [25]: 22% | viability, T/C [26]: 18.4% | viability, T/C [1]: 16.5% | viability, T/C [2]: 8.34% | viability, T/C (second compound 0.003 µM, first compound 0.000316 µM): 30.4% | viability, T/C (second compound 0.003 µM, first compound 0.001 µM): 25% | viability, T/C [27]: 20.8% | viability, T/C [28]: 18.1% | viability, T/C [5]: 12.2% | viability, T/C [6]: 8.88% | viability, T/C (second compound 0.00949 µM, first compound 0.000316 µM): 28% | viability, T/C (second compound 0.00949 µM, first compound 0.001 µM): 24.2% | viability, T/C [29]: 22.4% | viability, T/C [30]: 17.7% | viability, T/C [9]: 12% | viability, T/C [10]: 9.44% | viability, T/C (second compound 0.03 µM, first compound 0.000316 µM): 26.2% | viability, T/C (second compound 0.03 µM, first compound 0.001 µM): 24.5% | viability, T/C [31]: 20.3% | viability, T/C [32]: 18.6% | viability, T/C [13]: 10.4% | viability, T/C [14]: 9.27% | viability, T/C (second compound 0.0949 µM, first compound 0.000316 µM): 27.5% | viability, T/C (second compound 0.0949 µM, first compound 0.001 µM): 25.4% | viability, T/C [33]: 24.9% | viability, T/C [34]: 15.9% | viability, T/C [17]: 9.52% | viability, T/C [18]: 10.3% | viability, T/C (second compound 0.3 µM, first compound 0.000316 µM): 24.9% | viability, T/C (second compound 0.3 µM, first compound 0.001 µM): 21.9% | viability, T/C [35]: 22.9% | viability, T/C [36]: 16.1% | viability, T/C [21]: 10.5% | viability, T/C [22]: 9.53%

C=CC(=O)N1CCN(c2nc(OCC3CCCN3C)nc3c(F)c(-c4nc(N)cc(C)c4C(F)(F)F)c(Cl)cc23)C(C)C1 (stereo unspecified) + CCn1c(-c2cc(N3CCN(C)CC3)cnc2C(C)OC)c2c3cc(ccc31)-c1csc(n1)CC(NC(=O)C1CC1C)C(=O)N1CCCC(N1)C(=O)OCC(C)(C)C2
pIC50 (second compound 0.000949 µM): > 8.50 | pIC50 (second compound 0.003 µM): > 8.50 | pIC50 (second compound 0.00949 µM): > 8.50 | pIC50 (second compound 0.03 µM): > 8.50 | pIC50 (second compound 0.0949 µM): > 8.50 | pIC50 (second compound 0.3 µM): > 8.50 | viability, T/C [25]: 32.5% | viability, T/C [26]: 33% | viability, T/C [1]: 22.8% | viability, T/C [2]: 30.2% | viability, T/C [3]: 28.8% | viability, T/C [4]: 23.3% | viability, T/C [27]: 32.6% | viability, T/C [28]: 26.3% | viability, T/C [5]: 23.6% | viability, T/C [6]: 29.8% | viability, T/C [7]: 29.5% | viability, T/C [8]: 27.4% | viability, T/C [29]: 31% | viability, T/C [30]: 25% | viability, T/C [9]: 28.1% | viability, T/C [10]: 28.5% | viability, T/C [11]: 25.9% | viability, T/C [12]: 26.9% | viability, T/C [31]: 26.4% | viability, T/C [32]: 23% | viability, T/C [13]: 25% | viability, T/C [14]: 21% | viability, T/C [15]: 16.9% | viability, T/C [16]: 21.8% | viability, T/C [33]: 18.4% | viability, T/C [34]: 16.8% | viability, T/C [17]: 16% | viability, T/C [18]: 14.4% | viability, T/C [19]: 12.2% | viability, T/C [20]: 13.8% | viability, T/C [35]: 17.2% | viability, T/C [36]: 13.7% | viability, T/C [21]: 14% | viability, T/C [22]: 11.8% | viability, T/C [23]: 12.9% | viability, T/C [24]: 11.1%
